Broadly, the IC50 is the midpoint of a concentration-inhibition curve.

Read-outs that look alike come from different tables or passages of the source.

One experiment has as its system HL60/VINC. The experiment can be described thus: Cytostatic activity in vitro, vincristine-induced resistant subline (MDR-1). Type of experiment: cell-based, human. As to conditions: for RI resistance index HL60/VINC / RI resistance index HL60VINC: IC50(resistant cells)/IC50(sensitive cells); for RI resistance index HL60/VINC: HL60/VINC vs HL60, 72 h; for RI resistance index HL60VINC: 96 h. The text has this:
(§1) Tables 3 and 4 show cytostatic activity in vitro of 2,6-disubstituted and 2- or 6-monosubstituted (Tab.3), and of 2,5-disubstituted-(Tab.-4) tetracyclic anthrapyridazone derivatives using leukemia cell line HL-60 and the resistant cell sublines with resistance induced by vincristine (MDR-1) or doxorubicin (MRP). Activity of compounds is differentiated depending on their structure, but in all cases resistance indexes are more advantageous in comparison with reference compounds: doxorubicin and mitoxantrone.

The next experiment concerns HL60/DX. Briefly: Cytostatic activity in vitro, doxorubicin-induced resistant subline (MRP). As to conditions: for RI resistance index HL60/DX: IC50(resistant cells)/IC50(sensitive cells). It counts as cell-based, human.
Description: as §1

For experiment [1], the system named is human prostate cancer cell line DU145. The experiment can be described thus: Cytostatic activity in vitro, prostate cancer DU145. It counts as cell-based. As to conditions: 72 h continuous exposure. The text has this:
(§2) Table 5 presents activity in vitro of anthrapiridazone derivatives towards three cell lines of prostate cancer, naturally multidrug resistant, in comparison with references doxorubicin, mitoxantrone and taxol.

The subject of experiment [2] is human prostate cancer cell line PC3. Briefly: Cytostatic activity in vitro, prostate cancer PC3. It counts as cell-based. As to conditions: 72 h continuous exposure.
Description: as §2

A further experiment relates to CT-DNA. The experiment can be described thus: Interaction with isolated CT-DNA, fluorescence competition with ethidium bromide. Type of experiment: binding. As to conditions: for IC50: 50% decrease in fluorescence intensity of DNA-bromide ethydine complex; for Kapp relative constant of DNA-compound bonding: Kapp = (1.26/C50) × KEtBr, KEtBr = 10^7M. The text has this:
It could be supposed that this property explains cytostatic activity of compounds. In Table 9 there are presented quantitative data on the affinity to DNA of tested compounds using the fluorescence method and competitive affinity to DNA of bromine ethydine and tested compounds.

Experiment [3] has as its system human promyelocytic leukemia cell line HL-60. Briefly: Cytostatic activity in vitro, HL-60 sensitive line. As to conditions: read-out: HL60 IC50. Type of experiment: cell-based.
Description: as §1

Experiment [4] has as its system human prostate cancer cell line LNCaP. The experiment can be described thus: Cytostatic activity in vitro, prostate cancer LNCaP. It counts as cell-based. As to conditions: 72 h continuous exposure.
Description: as §2

The mark [5] stands for this setting: 50% inhibition of cell growth after 72 h continuous exposure.
[6] abbreviates: 96 h continuous exposure, read-out: HL60VINC IC50.

Consider `CCN(CC)CCNc1ccc2c(=O)n(CCN(C)C)nc3c2c1C(=O)c1ccccc1-3` [Compound C-155, 2-[2-(Dimethylamino)ethyl]-6-{[(2-diethylamino)ethyl]amino}-2,7-dihydro-3H-dibenzo[de,h]cynnoline-3,7-dione], for which the half-maximal inhibitory concentration (IC50) came to 116 ± 28 nM with HL60/VINC (72 h continuous exposure); 446 ± 100 nM in the experiment on HL60/DX (72 h continuous exposure); 71.4 ± 21.6 nM in experiment [1]; 144 ± 32.7 nM in experiment [2]; 310 ± 10 nM in the experiment with CT-DNA; 19 ± 4 nM in experiment [3] (setting [5]). This molecule had a half-maximal inhibitory concentration (IC50) in experiment [4] of 26.2 ± 7.2 nM. In the experiment on HL60/VINC, the “RI resistance index HL60/VINC” value turned out to be 6.1. In the experiment on HL60/DX (HL60/DX vs HL60, 72 h), the “RI resistance index HL60/DX” value is 23.5. In addition, the Kapp relative constant of DNA-compound bonding in the experiment with CT-DNA was found to be 4.02e+07 M⁻¹.
As to `CC(=O)[C@]1(O)Cc2c(O)c3c(c(O)c2[C@@H](O[C@H]2C[C@H](N)[C@H](O)[C@H](C)O2)C1)C(=O)c1ccccc1C3=O` [Idarubicin, reference compound], in the experiment with CT-DNA, the IC50 was determined as 500 ± 60 nM and the Kapp relative constant of DNA-compound bonding turned out to be 2.5e+07 M⁻¹.
Turning to `CN(C)CCn1nc2c3c(cccc3c1=O)C(=O)c1ccccc1-2` [PDZ-15, 2-[2-(Dimethylamino)ethyl]-2,7-dihydro-3H-dibenzo[de,h]cynnoline-3,7-dione], the half-inhibitory concentration (IC50) in the experiment with HL60/VINC (72 h continuous exposure) came to 489 ± 68 nM; in the experiment on HL60/DX (72 h continuous exposure) it was 3060 ± 992 nM; in experiment [1] it was 462 ± 52 nM; in experiment [2], 963 ± 171 nM; in the experiment with CT-DNA, 3080 ± 190 nM; in experiment [3] (setting [5]), 213 ± 64 nM. In experiment [4], this molecule showed a concentration for half-maximal inhibition (IC50) of 323 ± 34 nM. For the same molecule, the “RI resistance index HL60/VINC” value in the experiment on HL60/VINC is 2.3. Further, the “RI resistance index HL60/DX” value in the experiment with HL60/DX (HL60/DX vs HL60, 72 h) came out at 14.4. The molecule also displayed a Kapp relative constant of DNA-compound bonding in the experiment with CT-DNA of 4.1e+06 M⁻¹.
Regarding `CN(C)CCn1nc2c3c(c(NCCNCCO)ccc3c1=O)C(=O)c1ccccc1-2` [Compound C-165, 2-[2-(Dimethylamino)ethyl]-6-[2-(2-aminoethylamino)ethanolo]-2,7-dihydro-3H-dibenzo[de,h]cynnoline-3,7-dione], the 50% inhibitory concentration (IC50) in the experiment on HL60/VINC (72 h continuous exposure) turned out to be 30.8 ± 4 nM; in the experiment on HL60/DX (72 h continuous exposure), 706 ± 57 nM; in experiment [1], 14.3 ± 3.3 nM; in experiment [2], 51.6 ± 12.4 nM; with CT-DNA, 370 ± 80 nM; in experiment [3] (setting [5]) it was 2.1 ± 0.4 nM. The same molecule came in with a concentration for half-maximal inhibition (IC50) in experiment [4] of 8.1 ± 1 nM. Besides, the “RI resistance index HL60/VINC” value with HL60/VINC is recorded as 14.7. Moreover, the “RI resistance index HL60/DX” value in the experiment with HL60/DX (HL60/DX vs HL60, 72 h) was 336.2. In the experiment with CT-DNA, this molecule showed a Kapp relative constant of DNA-compound bonding of 3.44e+07 M⁻¹.
For the molecule `CC(=O)O[C@H]1C(=O)[C@@]2(C)[C@H]([C@H](OC(=O)c3ccccc3)[C@]3(O)C[C@H](OC(=O)[C@H](O)[C@@H](NC(=O)c4ccccc4)c4ccccc4)C(C)=C1C3(C)C)[C@]1(OC(C)=O)CO[C@@H]1C[C@@H]2O` [Taxol, reference compound], the concentration for half-maximal inhibition (IC50) in experiment [1] (Homo sapiens, DU-145) was 3.9 ± 0.6 nM; in experiment [2] (Homo sapiens), 4 ± 0.4 nM; in experiment [4] (Homo sapiens, LNCaP), 1.2 ± 0.3 nM.
In the experiment with CT-DNA, `O=C1c2ccccc2C(=O)c2c(NCCNCCO)ccc(NCCNCCO)c21` [Ametantrone, reference compound] gave an IC50 of 49 ± 6 nM and a Kapp relative constant of DNA-compound bonding of 2.57e+08 M⁻¹.
Consider `CN(C)CCn1nc2c3c(cc(NCCN)cc3c1=O)C(=O)c1ccccc1-2` [Compound C-170, 2-[2-(Dimethylamino)ethyl]-5-(2-aminoetyloamino)-2,7-dihydro-3H-dibenzo[de,h]cynnoline-3,7-dione], for which the half-maximal inhibitory concentration (IC50) in the experiment with HL60/VINC (setting [6]) amounted to 210 ± 52 nM; in the experiment with HL60/DX (96 h continuous exposure), 753 ± 29 nM; in experiment [3] (96 h continuous exposure) it was 8.2 ± 1 nM. Also, the “RI resistance index HL60VINC” value in the experiment with HL60/VINC came out at 25.6. Besides, in the experiment on HL60/DX (96 h), the “RI resistance index HL60/DX” value is 91.9.
In the same order, the values of `CN(C)CCn1nc2c3c(cc(NCCNCc4ccccc4)cc3c1=O)C(=O)c1ccccc1-2` [Compound C-171, 2-[2-(Dimethylamino)ethyl]-5-[(2-benzylamino)ethylamino]-2,7-dihydro-3H-dibenzo[de,h]cynnolino-3,7-dion] are 375 ± 18 nM, 564 ± 34 nM, 398 ± 25 nM, 0.9 and 1.4.

(Values after patent US9096536B2, “Asymmetrically substituted anthrapyridazone derivatives as cytostatics” (BS-154 S.P. ZO.O., priority 2011, dated 2015).)
